Results on 1 molecule are retold here after patent US20240301504A1, “MULTIANALYTE BIOMARKERS FOR LUNG CANCER” (The Curators of the University of Missouri, priority 2021, published 2024).

The assay deals with H1975 cells. In words: Trypan blue exclusion cell death assay in H1975 cells. It is filed as cell-based. Conditions: Osimertinib 100 nM, 24 hrs, FIG. 13C. The method, then:
miRNA Transfections and Osimertinib treatments miRNA stock was prepared by suspending in RNAse-free water. Cells were seeded such that they were 70-80% confluent at the time of transfection. Cells were allowed to adhere for 24 hrs and then transfected with 25 nM of miRNA inhibitors against hsa-miR184 (Sigma #HSTUD0282), hsa-miR22-3p (Sigma #HSTUD0393) or 100 nM of hsa-let7b-5p miRNA mimic (Sigma c #HMI0007) using Lipofectamine 3000 (Invitrogen #L3000001). Osimertinib (100 nM) was added an hour after transfection to cells. Cells were allowed to incubate with transfection mix for 24 hrs at 37° C., 5% CO2 and then washed with 1× PBS and trypsinized to be used for cell count and Western blotting.

Regarding `C=CC(=O)Nc1cc(Nc2nccc(-c3cn(C)c4ccccc34)n2)c(OC)cc1N(C)CCN(C)C` [Osimertinib], the H1975 cell death result is “induced”.
